The results in this text go back to US12240838B2, “Inhibiting agents for Bruton's tyrosine kinase” (BIOGEN MA INC., priority 2019, dated 2025).

In assay [1] the target is T1, BTK (Homo sapiens (Human), UniProt Q06187). Nature of the assay: In Vitro BTK Kinase Assay: BTK-POLYGAT-LS ASSAY. The assay is classed as biochemical. The following applies: ATP 10 μM, polyGAT 100 nM, BTK 0.25 nM, 30 minutes. The protocol:
The purpose of the BTK in vitro assay is to determine compound potency against BTK through the measurement of IC50. […] The BTK kinase reaction was done in a black 96 well plate (costar 3694). For a typical assay, a 24 μL aliquot of a ATP/peptide master mix (final concentration; ATP 10 μM, polyGAT 100 nM) in kinase buffer (10 mM Tris-HCl pH 7.5, 10 mM MgCl2, 200 μM […], 5 mM DTT, 0.01% Triton X-100, and 0.2 mg/ml casein) is added to each well. Next, […] of a 4-fold, 40× compound titration in 100% DMSO solvent is added, followed by adding 15 μL of BTK enzyme mix in 1× kinase buffer (with a final concentration of 0.25 nM). The assay is incubated for 30 minutes before being stopped with […] of a 50 mM EDTA solution. Aliquots (5 μL) of the kinase reaction are transferred to a low volume white 384 well plate (Coming 3674), and […] of a 2× detection buffer (Invitrogen PV3574, with 4 nM Tb-PY20 antibody, Invitrogen PV3552) is added. The plate is covered and incubated for 45 minutes at room temperature. Time resolved fluorescence (TRF) on Molecular Devices M5 (332 nm excitation; 488 nm emission; 518 nm fluorescein emission) is measured.

Assay [2] deals with T1, BTK. Description: In Vitro PD Assay in Human Whole Blood (pBTK assay). The following applies: 37° C. for 30 min, 50% inhibition of ECL signal. The assay is classed as cell-based. The protocol:
Human heparinized venous blood was purchased from Bioreclamation, Inc. or SeraCare Life Sciences and shipped overnight. Whole blood was aliquoted into 96-well plate and “spiked” with serial dilutions of test compound in DMSO or with DMSO without drug. The final concentration of DMSO in all wells was 0.1%. The plate was incubated at 37° C. for 30 min. Lysis buffer containing protease and phosphatase inhibitors was added to the drug-containing samples and one of the DMSO-only samples (+PPi, high control), while lysis buffer containing protease inhibitors was added to the other DMSO-only samples (−PPi, low control). All of the lysed whole blood samples were subjected to the total BTK capture and phosphotyrosine detection method described in US20160311802, incorporated herein by reference.

Structures are written as SMILES.

T1 sequence (Q06187 whole entry): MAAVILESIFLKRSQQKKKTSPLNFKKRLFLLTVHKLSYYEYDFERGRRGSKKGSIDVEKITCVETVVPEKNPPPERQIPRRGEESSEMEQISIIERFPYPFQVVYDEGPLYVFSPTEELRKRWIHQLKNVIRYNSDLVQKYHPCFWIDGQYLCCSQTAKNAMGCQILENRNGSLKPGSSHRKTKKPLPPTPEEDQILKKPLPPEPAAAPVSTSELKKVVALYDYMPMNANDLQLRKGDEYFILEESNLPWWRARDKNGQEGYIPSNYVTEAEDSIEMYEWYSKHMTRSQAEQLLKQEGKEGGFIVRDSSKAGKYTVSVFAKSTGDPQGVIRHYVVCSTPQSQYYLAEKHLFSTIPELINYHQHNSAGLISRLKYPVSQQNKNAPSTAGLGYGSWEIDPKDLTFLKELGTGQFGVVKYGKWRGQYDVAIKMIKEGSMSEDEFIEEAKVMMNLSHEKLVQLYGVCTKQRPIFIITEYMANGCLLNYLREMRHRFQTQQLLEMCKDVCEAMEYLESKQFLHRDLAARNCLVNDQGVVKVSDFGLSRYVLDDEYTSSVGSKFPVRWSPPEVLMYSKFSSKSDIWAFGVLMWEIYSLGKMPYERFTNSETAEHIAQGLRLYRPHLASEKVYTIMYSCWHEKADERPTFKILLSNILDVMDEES

On to `Cc1cc(-c2ccnc(NC(=O)C3CC3(F)F)c2)ccc1CNC(=O)c1noc(C(C)(C)C)n1` (stereo not shown) [Compound 49, 5-(tert-butyl)-N-(4-(2-(2,2-difluorocyclopropane-1-carboxamido)pyridin-4-yl)-2-methylbenzyl)-1,2,4-oxadiazole-3-carboxamide], for which the half-maximal inhibitory concentration (IC50) was at most 1 nM in assay [1] and 500 to 10000 nM in assay [2]. The corresponding values for `Cc1c(-c2ccnc(NC(=O)C3CC3)c2)ccc(CNC(=O)c2nc(C(C)(C)C)no2)c1F` [Compound 100, 3-(tert-butyl)-N-(4-(2-(cyclopropanecarboxamido)pyridin-4-yl)-2-fluoro-3-methylbenzyl)-1,2,4-oxadiazole-5-carboxamide] are at most 1 nM and 500 to 10000 nM. In the case of `CC(C)(C)c1nc(C(=O)N[C@H]2CCCOc3cc(-c4ccnc(NC(=O)C5CC5)c4)ccc32)no1` [Compound 53, (S)-5-(tert-butyl)-N-(8-(2-(cyclopropanecarboxamido)pyridin-4-yl)-2,3,4,5-tetrahydrobenzo[b]oxepin-5-yl)-1,2,4-oxadiazole-3-carboxamide], the values for the IC50 in assay [1] and in assay [2] were 10 to 1000 nM and above 10000 nM, respectively.

In the case of `Cc1cc(-c2ccnc(NC(=O)C3CC3)c2)ccc1CNC(=O)c1nc(C(C)(C)CF)no1` [Compound 39, N-(4-(2-(cyclopropanecarboxamido)pyridin-4-yl)-2-methylbenzyl)-3-(1-fluoro-2-methylpropan-2-yl)-1,2,4-oxadiazole-5-carboxamide], the IC50 in assay [1] was at most 1 nM; in assay [2], 100 to 500 nM. Regarding `CC(C)(C)c1noc(C(=O)NCc2ccc(-c3ccnc(NC(=O)C4CC4)c3)cc2C(F)(F)F)n1` [Compound 17, 3-(tert-butyl)-N-(4-(2-(cyclopropanecarboxamido)pyridin-4-yl)-2-(trifluoromethyl)benzyl)-1,2,4-oxadiazole-5-carboxamide], the IC50 is at most 1 nM in assay [1] and at most 100 nM in assay [2]. In assay [1], `C[C@@H](NC(=O)c1noc(C(C)(C)C)n1)c1ccc(-c2ccnc(NC(=O)C3CC3)c2)c(F)c1Cl` [Compound 74, (R)-5-(tert-butyl)-N-(1-(2-chloro-4-(2-(cyclopropanecarboxamido)pyridin-4-yl)-3-fluorophenyl)ethyl)-1,2,4-oxadiazole-3-carboxamide] yielded an IC50 of at most 1 nM. `CC(C)(C)c1nc(C(=O)N[C@@H]2CCCCc3cc(-c4ccnc(NC(=O)C5CC5)c4)ccc32)co1` [Compound 68, (R)-2-(tert-butyl)-N-(2-(2-(cyclopropanecarboxamido)pyridin-4-yl)-6,7,8,9-tetrahydro-5H-benzo[7]annulen-5-yl)oxazole-4-carboxamide]: the IC50 in assay [1] was at most 1 nM; in assay [2] it was 500 to 10000 nM.

Take `C[C@@H](NC(=O)c1nc(C(C)(C)C)no1)c1ccc(-c2ccnc(NC(=O)C3CC3)c2)cc1C(F)(F)F` [Compound 79, (R)-3-(tert-butyl)-N-(1-(4-(2-(cyclopropanecarboxamido)pyridin-4-yl)-2-(trifluoromethyl)phenyl)ethyl)-1,2,4-oxadiazole-5-carboxamide]: the values for the IC50 in assay [1] and in assay [2] were at most 1 nM and 100 to 500 nM, respectively. On to `Cc1cc(-c2ccnc(NC(=O)[C@H]3C[C@H]3F)c2)ccc1CNC(=O)c1noc(C(C)(C)C)n1` (single isomer, unassigned) [Compound 4], for which the IC50 in assay [1] is at most 1 nM.

`COc1cc(-c2ccnc(NC(=O)C3CC3)c2)ccc1CNC(=O)c1noc(C(C)(C)C)n1` [Compound 87, 5-(tert-butyl)-N-(4-(2-(cyclopropanecarboxamido)pyridin-4-yl)-2-methoxybenzyl)-1,2,4-oxadiazole-3-carboxamide] yielded an IC50 in assay [1] of at most 1 nM. In turn, `CC(C)(C)c1nc(C(=O)NCc2cc(F)c(-c3ccnc(NC(=O)C4CC4)c3)cc2C(F)(F)F)no1` [Compound 62, 5-(tert-butyl)-N-(4-(2-(cyclopropanecarboxamido)pyridin-4-yl)-5-fluoro-2-(trifluoromethyl)benzyl)-1,2,4-oxadiazole-3-carboxamide] registered an IC50 in assay [2] of 500 to 10000 nM. For the compound `CC(C)(C)c1noc(C(=O)NCc2ccc(-c3ccnc(NC(=O)C4CC4)c3)c(F)c2C(F)F)n1` [Compound 27, 3-(tert-butyl)-N-(4-(2-(cyclopropanecarboxamido)pyridin-4-yl)-2-(difluoromethyl)-3-fluorobenzyl)-1,2,4-oxadiazole-5-carboxamide], the IC50 in assay [1] was at most 1 nM. Take `Cc1cc(-c2ccnc(NC(=O)C3CC3C(F)(F)F)c2)ccc1CNC(=O)c1noc(C(C)(C)C)n1` (stereo not shown) [Compound 25, 5-(tert-butyl)-N-(2-methyl-4-(2-(2-(trifluoromethyl)cyclopropane-1-carboxamido)pyridin-4-yl)benzyl)-1,2,4-oxadiazole-3-carboxamide]: the IC50 in assay [1] lay within 1 to 10 nM.

For `Cc1cc(-c2ccnc(NC(=O)C3CC3)c2)ccc1CNC(=O)c1nn(C(C)(C)C)cc1F` [Compound 28, 1-(tert-butyl)-N-(4-(2-(cyclopropanecarboxamido)pyridin-4-yl)-2-methylbenzyl)-4-fluoro-1H-pyrazole-3-carboxamide], the IC50 in assay [1] was at most 1 nM. `CC(C)(C)c1nc(C(=O)NCc2ccc(-c3ccnc(NC(=O)C4CC4)c3)cc2C2CCC2)no1` [Compound 88, 5-(tert-butyl)-N-(2-cyclobutyl-4-(2-(cyclopropanecarboxamido)pyridin-4-yl)benzyl)-1,2,4-oxadiazole-3-carboxamide]: the IC50 in assay [1] was at most 1 nM. On the same count and under the same terms, the result for `C[C@@H](NC(=O)c1nc(C(C)(C)C)no1)c1ccc(-c2ccnc(NC(=O)C3CC3)c2)c(F)c1Cl` [Compound 75, (R)-3-(tert-butyl)-N-(1-(2-chloro-4-(2-(cyclopropanecarboxamido)pyridin-4-yl)-3-fluorophenyl)ethyl)-1,2,4-oxadiazole-5-carboxamide] reads at most 1 nM; that for `Cc1cc(-c2ccnc(NC(=O)C3CC3)c2)ccc1CNC(=O)c1cn(C(C)(C)C)cn1` [Compound 95, 1-(tert-butyl)-N-(4-(2-(cyclopropanecarboxamido)pyridin-4-yl)-2-methylbenzyl)-1H-imidazole-4-carboxamide], 10 to 1000 nM. `Cc1c([C@@H](C)NC(=O)c2nc(C(C)(C)C)no2)ccc(-c2ccnc(NC(=O)C3CC3)c2)c1F` [Compound 66, (R)-3-(tert-butyl)-N-(1-(4-(2-(cyclopropanecarboxamido)pyridin-4-yl)-3-fluoro-2-methylphenyl)ethyl)-1,2,4-oxadiazole-5-carboxamide] came in with an IC50 in assay [1] of at most 1 nM. The compound `Cc1cc(-c2ccnc(NC(=O)C3C4COCC43)c2)ccc1CNC(=O)c1noc(C(C)(C)C)n1` (stereo not shown) [Compound 23] displayed an IC50 in assay [1] of 1 to 10 nM.

In the case of `CC(C)(C)c1nc(C(=O)N[C@@H]2CCCCc3cc(-c4ccnc(NC(=O)C5CC5)c4)c(F)cc32)no1` [Compound 24, (R)-5-(tert-butyl)-N-(2-(2-(cyclopropanecarboxamido)pyridin-4-yl)-3-fluoro-6,7,8,9-tetrahydro-5H-benzo[7]annulen-5-yl)-1,2,4-oxadiazole-3-carboxamide], in assay [1], the IC50 was at most 1 nM. In assay [1], `CC(C)(C)c1noc(C(=O)N[C@@H]2CCCCc3cc(-c4ccnc(NC(=O)[C@@H]5C[C@@H]5C#N)c4)ccc32)n1` [Compound 50, 3-(tert-butyl)-N-((R)-2-(2-((1R,2S)-2-cyanocyclopropane-1-carboxamido)pyridin-4-yl)-6,7,8,9-tetrahydro-5H-benzo[7]annulen-5-yl)-1,2,4-oxadiazole-5-carboxamide] came in with an IC50 of at most 1 nM. The same measure, in the same setting: the result for `CC(C)(C)c1nc(C(=O)NCc2ccc(-c3ccnc(NC(=O)C4CC4)c3)c(F)c2C(F)(F)F)no1` [Compound 86, 5-(tert-butyl)-N-(4-(2-(cyclopropanecarboxamido)pyridin-4-yl)-3-fluoro-2-(trifluoromethyl)benzyl)-1,2,4-oxadiazole-3-carboxamide] reads at most 1 nM; that for `Cc1cc(-c2ccnc(NC(=O)C3CC3)c2)c(F)cc1[C@@H](C)NC(=O)c1noc(C(C)(C)C)n1` [Compound 85, (R)-5-(tert-butyl)-N-(1-(4-(2-(cyclopropanecarboxamido)pyridin-4-yl)-5-fluoro-2-methylphenyl)ethyl)-1,2,4-oxadiazole-3-carboxamide], at most 1 nM.

Consider `CC(C)(C)c1nc(C(=O)N[C@@H]2CCCCc3c2ccc(-c2ccnc(NC(=O)C4CC4)c2)c3F)no1` [Compound 40, (R)-5-(tert-butyl)-N-(2-(2-(cyclopropanecarboxamido)pyridin-4-yl)-1-fluoro-6,7,8,9-tetrahydro-5H-benzo[7]annulen-5-yl)-1,2,4-oxadiazole-3-carboxamide], for which the IC50 in assay [1] is at most 1 nM.

The IC50 is the concentration needed to halve the response being measured. A higher IC50 goes with a need for much substance.
